Results on 15 molecules are retold here after US20240360178A1, “MACROCYCLIC IMMUNOMODULATORS” (Bristol-Myers Squibb Company, priority 2021, published 2024).

The assay has as its target T1, human PD-1 (Jurkat-PD-1 cells) / PE-labeled human PD-L1-Ig (Homo sapiens, UniProt Q15116).
T1 construct: expressed in transfected cells; host or cells: Jurkat cell line over-expressing human PD-1
The assay is described as follows: Jurkat-PD-1 Cell Binding High-Content Screening Assay (CBA); Jurkat hPD1-PDL1 assay. The settings on record: Jurkat cell line over-expressing human PD-1; PE-labeled PD-L1-Ig 20 nM final; compound incubated 2 hours at 37° C.; read-out: Jurkat HPD1-PDL1 IC50. A digest of the protocol: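 Jurkat-hPD-1 cells; cpd 2 h, 37° C; then PE-PD-L1-Ig 20 nM final in DMEM/10% FCS; high-content imaging read-out.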

Positions of bridges follow the written chain, without caps; N, C: chain ends. Non-standard residues stand in square brackets, D forms with d. Residues, ends and D or L forms follow the SMILES beside them. ξ: configuration not given here. *: point of attachment. Phe(4-COOH) = N[C@@H](Cc1ccc(C(=O)O)cc1)C(=O)O; Bip = N[C@@H](Cc1ccc(-c2ccccc2)cc1)C(=O)O; dPro(4S-NH2) = N[C@@H]1CN[C@@H](C(=O)O)C1; Phe(4-NH2) = Nc1ccc(C[C@H](N)C(=O)O)cc1; Phe(3-Me) = Cc1cccc(C[C@H](N)C(=O)O)c1; 1Nal = N[C@@H](Cc1cccc2ccccc12)C(=O)O; hTyr = N[C@@H](CCc1ccc(O)cc1)C(=O)O; NMeF = CN[C@@H](Cc1ccccc1)C(=O)O; dHyp = O=C(O)[C@H]1C[C@H](O)CN1; Carboxymethyl = O=C(O)C*; NMeA = CN[C@@H](C)C(=O)O; Nle = CCCC[C@H](N)C(=O)O; Orn = NCCC[C@H](N)C(=O)O; Dab = NCC[C@H](N)C(=O)O; Abu = CC[C@H](N)C(=O)O; ξV = CC(C)C(N)C(=O)O; Sar = CNCC(=O)O

Broadly, the IC50 is the concentration needed to halve the response being measured.

T1 sequence (Q15116 25-288): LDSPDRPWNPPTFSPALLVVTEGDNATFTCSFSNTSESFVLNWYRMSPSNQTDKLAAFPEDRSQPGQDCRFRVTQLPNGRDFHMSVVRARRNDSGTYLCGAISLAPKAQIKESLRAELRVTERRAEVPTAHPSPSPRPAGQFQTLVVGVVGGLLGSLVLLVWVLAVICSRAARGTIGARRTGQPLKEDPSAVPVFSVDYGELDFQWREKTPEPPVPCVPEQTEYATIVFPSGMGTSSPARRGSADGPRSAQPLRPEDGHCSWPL

As to `CC(C)C[C@@H]1NC(=O)[C@H](Cc2c[nH]c3ccccc23)NC(=O)[C@H](CC(=O)O)NC(=O)[C@H](Cc2ccc(O)cc2)NC(=O)[C@H](Cc2ccccc2)NC(=O)CSC[C@@H](C(=O)N[C@@H](C)C(N)=O)NC(=O)[C@H](CO)NC(=O)[C@H](C(C)C)NC(=O)[C@H](CC(C)C)NC(=O)[C@H](CC(N)=O)NC(=O)CN(C)C(=O)[C@H]2C[C@H](O)CN2C(=O)C(C(C)C)NC(=O)[C@H](Cc2ccc(-c3ccccc3)cc2)NC1=O` (stereo partly drawn) [Example 1003] ({CH2CO}-FYDWL[Bip][ξV][dHyp][Sar]NLVSCA-NH2; thioether N-14), the half-inhibitory concentration (IC50) worked out at 760 nM.
The value for `CC(C)C[C@@H]1NC(=O)[C@H](Cc2cccc3ccccc23)NC(=O)[C@H](CC(=O)O)NC(=O)[C@H](Cc2ccc(O)cc2)NC(=O)[C@H](Cc2ccccc2)NC(=O)CSC[C@@H](C(=O)N[C@@H](C)C(N)=O)NC(=O)[C@H](CO)NC(=O)[C@H](C(C)C)NC(=O)[C@H](CC(C)C)NC(=O)[C@H](CC(N)=O)NC(=O)CN(C)C(=O)[C@H](C)N(C)C(=O)[C@H](C(C)C)NC(=O)[C@H](Cc2ccc(-c3ccccc3)cc2)NC1=O` [Example 1116] ({CH2CO}-FYD[1Nal]L[Bip]V[NMeA][Sar]NLVSCA-NH2; thioether N-14) was 400 nM.
`CC(C)C[C@@H]1NC(=O)CSC[C@@H](C(=O)NCC(N)=O)NC(=O)[C@H](CO)NC(=O)[C@H](C(C)C)NC(=O)[C@H](CC(C)C)NC(=O)[C@H](CCN)NC(=O)[C@H](Cc2ccccc2)N(C)C(=O)[C@H](C)N(C)C(=O)[C@H](CCCNC(=N)N)NC(=O)[C@H](Cc2ccc(-c3ccccc3)cc2)NC(=O)[C@H](C(C)C)NC(=O)[C@H](Cc2c[nH]c3ccccc23)NC(=O)[C@H](CC(=O)O)NC(=O)[C@H](Cc2ccc(O)cc2)NC1=O` [Example 1289] ({CH2CO}-LYDWV[Bip]R[NMeA][NMeF][Dab]LVSCG-NH2; thioether N-14): the IC50 is 170 nM.
The value for `CC(C)C[C@@H]1NC(=O)[C@H](Cc2c[nH]c3ccccc23)NC(=O)[C@H](CC(=O)O)NC(=O)[C@H](Cc2ccc(O)cc2)NC(=O)[C@H](Cc2ccccc2)NC(=O)CSC[C@@H](C(=O)N[C@@H](C)C(N)=O)NC(=O)[C@H](CO)NC(=O)[C@H](C(C)C)NC(=O)[C@H](CC(C)C)NC(=O)[C@H](CC(N)=O)NC(=O)[C@H]2C[C@H](N)CN2C(=O)[C@H](C)N(C)C(=O)[C@H](C(C)C)NC(=O)[C@H](Cc2ccc(-c3ccccc3)cc2)NC1=O` [Example 1091] ({CH2CO}-FYDWL[Bip]V[NMeA][dPro(4S-NH2)]NLVSCA-NH2; thioether N-14) was 260 nM; that for `CC[C@@H]1NC(=O)[C@H](Cc2c[nH]c3ccccc23)NC(=O)[C@H](CC(=O)O)NC(=O)[C@H](Cc2ccc(O)cc2)NC(=O)[C@H](Cc2ccccc2)NC(=O)CSC[C@@H](C(=O)NCC(N)=O)NC(=O)[C@H](CO)NC(=O)[C@H](C(C)C)NC(=O)[C@H](CC(C)C)NC(=O)[C@H](CCCNC(=N)N)NC(=O)[C@H](Cc2ccccc2)N(C)C(=O)[C@H](C)N(C)C(=O)[C@H](CCCNC(=N)N)NC(=O)[C@H](Cc2ccc(-c3ccccc3)cc2)NC1=O` [Example 1336] ({CH2CO}-FYDW[Abu][Bip]R[NMeA][NMeF]RLVSCG-NH2; thioether N-14) was 410 nM.
Turning to `CC(C)C[C@@H]1NC(=O)[C@H](CCCNC(=N)N)NC(=O)[C@H](Cc2ccccc2)N(C)C(=O)[C@H](C)N(C)C(=O)[C@H](CCCNC(=N)N)NC(=O)[C@H](Cc2ccc(-c3ccccc3)cc2)NC(=O)[C@H](C(C)C)NC(=O)[C@H](Cc2c[nH]c3ccccc23)NC(=O)[C@H](CC(=O)O)NC(=O)[C@H](Cc2ccc(O)cc2)NC(=O)[C@H](Cc2cnc[nH]2)NC(=O)CSC[C@@H](C(=O)N[C@@H](C)C(N)=O)NC(=O)[C@H]([C@@H](C)O)NC(=O)[C@H](C(C)C)NC1=O` [Example 1324] ({CH2CO}-HYDWV[Bip]R[NMeA][NMeF]RLVTCA-NH2; thioether N-14), the half-maximal inhibitory concentration (IC50) amounted to 270 nM.
On to `CC(C)C[C@@H]1NC(=O)[C@H](CCN)NC(=O)[C@H](Cc2ccccc2)N(C)C(=O)[C@H](C)N(C)C(=O)[C@H](CCCNC(=N)N)NC(=O)[C@H](Cc2ccc(-c3ccccc3)cc2)NC(=O)[C@H](C(C)C)NC(=O)[C@H](Cc2c[nH]c3ccccc23)NC(=O)[C@H](CC(=O)O)NC(=O)[C@H](Cc2ccc(O)cc2)NC(=O)[C@H](Cc2ccccc2)NC(=O)CSC[C@@H](C(=O)N[C@@H](C)C(N)=O)NC(=O)[C@H](CO)NC(=O)[C@H](C(C)C)NC1=O` [Example 1304] ({CH2CO}-FYDWV[Bip]R[NMeA][NMeF][Dab]LVSCA-NH2; thioether N-14), for which the 50% inhibitory concentration (IC50) was found to be 60 nM.
Take `CC(C)C[C@@H]1NC(=O)[C@H](Cc2c[nH]c3ccccc23)NC(=O)[C@H](CC(=O)O)NC(=O)[C@H](CCc2ccc(O)cc2)NC(=O)[C@H](Cc2ccccc2)NC(=O)CSC[C@@H](C(=O)N[C@@H](C)C(N)=O)NC(=O)[C@H](CO)NC(=O)[C@H](C(C)C)NC(=O)[C@H](CC(C)C)NC(=O)[C@H](CC(N)=O)NC(=O)CN(C)C(=O)[C@H](C)N(C)C(=O)[C@H](C(C)C)NC(=O)[C@H](Cc2ccc(-c3ccccc3)cc2)NC1=O` [Example 1086] ({CH2CO}-F[hTyr]DWL[Bip]V[NMeA][Sar]NLVSCA-NH2; thioether N-14): the IC50 worked out at 250 nM.
As for `CC(C)C[C@@H]1NC(=O)[C@H](Cc2c[nH]c3ccccc23)NC(=O)[C@H](CC(=O)O)NC(=O)[C@H](Cc2ccc(O)cc2)NC(=O)[C@H](Cc2ccccc2)NC(=O)CSC[C@@H](C(=O)NCC(N)=O)NC(=O)[C@H](CO)NC(=O)[C@H](C(C)C)NC(=O)[C@H](CC(C)C)NC(=O)[C@H](CCCN)NC(=O)CN(C)C(=O)[C@H](C)N(C)C(=O)[C@H](C(C)C)NC(=O)[C@H](Cc2ccc(-c3ccccc3)cc2)NC1=O` [Example 1079] ({CH2CO}-FYDWL[Bip]V[NMeA][Sar][Orn]LVSCG-NH2; thioether N-14), the IC50 was found to be 220 nM.
To `COC[C@@H]1NC(=O)[C@H](C(C)C)NC(=O)[C@H](CC(C)C)NC(=O)[C@H](CC(N)=O)NC(=O)CN(C)C(=O)[C@H](C)N(C)C(=O)[C@H](C(C)C)NC(=O)[C@H](Cc2ccc(-c3ccccc3)cc2)NC(=O)[C@H](CC(C)C)NC(=O)[C@H](Cc2c[nH]c3ccccc23)NC(=O)[C@H](CC(=O)O)NC(=O)[C@H](Cc2ccc(O)cc2)NC(=O)[C@H](Cc2ccccc2)NC(=O)CSC[C@@H](C(=O)N[C@@H](C)C(N)=O)NC1=O` [Example 1123] ({CH2CO}-FYDWL[Bip]V[NMeA][Sar]NLVS(Me)CA-NH2; thioether N-14) belongs 440 nM; to `CCCC[C@@H]1NC(=O)CSC[C@@H](C(=O)NCC(N)=O)NC(=O)[C@H](CO)NC(=O)[C@H](C(C)C)NC(=O)[C@H](CC(C)C)NC(=O)[C@H](CC(N)=O)NC(=O)CN(C)C(=O)[C@H](C)N(C)C(=O)[C@H](C(C)C)NC(=O)[C@H](Cc2ccc(-c3ccccc3)cc2)NC(=O)[C@H](CC(C)C)NC(=O)[C@H](Cc2c[nH]c3ccccc23)NC(=O)[C@H](CC(=O)O)NC(=O)[C@H](Cc2ccc(O)cc2)NC1=O` [Example 1100] ({CH2CO}-[Nle]YDWL[Bip]V[NMeA][Sar]NLVSCG-NH2; thioether N-14), 310 nM.
To `CC(C)C[C@@H]1NC(=O)CSC[C@@H](C(=O)NCC(N)=O)NC(=O)[C@H](CO)NC(=O)[C@H](C(C)C)NC(=O)[C@H](CC(C)C)NC(=O)[C@H](CCCNC(=N)N)NC(=O)[C@H](Cc2ccccc2)N(C)C(=O)[C@H](C)N(C)C(=O)[C@H](CCCN)NC(=O)[C@H](Cc2ccc(-c3ccccc3)cc2)NC(=O)[C@H](C(C)C)NC(=O)[C@H](Cc2c[nH]c3ccccc23)NC(=O)[C@H](CC(=O)O)NC(=O)[C@H](Cc2ccc(O)cc2)NC1=O` [Example 1290] ({CH2CO}-LYDWV[Bip][Orn][NMeA][NMeF]RLVSCG-NH2; thioether N-14) belongs 140 nM; to `CC[C@H](NC(=O)[C@@H]1CSCC(=O)N[C@@H](Cc2ccccc2)C(=O)N[C@@H](Cc2ccc(O)cc2)C(=O)N[C@@H](CC(=O)O)C(=O)N[C@@H](Cc2c[nH]c3ccccc23)C(=O)N[C@@H](C(C)C)C(=O)N[C@@H](Cc2ccc(-c3ccccc3)cc2)C(=O)N[C@@H](CCCNC(=N)N)C(=O)N(C)[C@@H](C)C(=O)N(C)[C@@H](Cc2ccccc2)C(=O)N[C@@H](CCCNC(=N)N)C(=O)N[C@@H](CC(C)C)C(=O)N[C@@H](C(C)C)C(=O)N[C@@H](CO)C(=O)N1)C(N)=O` [Example 1337] ({CH2CO}-FYDWV[Bip]R[NMeA][NMeF]RLVSC[Abu]-NH2; thioether N-14), 870 nM.
To `Cc1cccc(C[C@@H]2NC(=O)[C@H](CC(=O)O)NC(=O)[C@H](Cc3ccc(C(=O)O)cc3)NC(=O)[C@H](Cc3ccc(OCC(=O)O)cc3)NC(=O)CSC[C@@H](C(=O)N[C@@H](C)C(N)=O)NC(=O)[C@H](CO)NC(=O)[C@H](C(C)C)NC(=O)[C@H](CC(C)C)NC(=O)[C@H](CC(N)=O)NC(=O)[C@H]3CCCN3C(=O)[C@H](C)N(C)C(=O)[C@H](C(C)C)NC(=O)[C@H](Cc3ccc(-c4ccccc4)cc3)NC(=O)[C@H](CC(C)C)NC2=O)c1` [Example 1436] ({CH2CO}-Y(Carboxymethyl)[Phe(4-COOH)]D[Phe(3-Me)]L[Bip]V[NMeA][dP]NLVSCA-NH2; thioether N-14) belongs 40 nM; to `CC(C)C[C@@H]1NC(=O)[C@H](Cc2c[nH]c3ccccc23)NC(=O)[C@H](CC(=O)O)NC(=O)[C@H](Cc2ccc(N)cc2)NC(=O)[C@H](Cc2ccccc2)NC(=O)CSC[C@@H](C(=O)N[C@@H](C)C(N)=O)NC(=O)[C@H](CO)NC(=O)[C@H](C(C)C)NC(=O)[C@H](CC(C)C)NC(=O)[C@H](CC(N)=O)NC(=O)CN(C)C(=O)[C@H](C)N(C)C(=O)[C@H](C(C)C)NC(=O)[C@H](Cc2ccc(-c3ccccc3)cc2)NC1=O` [Example 1076] ({CH2CO}-F[Phe(4-NH2)]DWL[Bip]V[NMeA][Sar]NLVSCA-NH2; thioether N-14), 210 nM.
